The source made the active and inactive calls. The rule behind the calls is not given here.
Experiments:
U-251 [1] = test: Induction of apoptosis in human U251 cells assessed as viable cell level at 40 uM after 72 hrs by annexin V-FITC/propidium iodide double staining based flow cytometry (reference value: 91.04%); assay type: functional
[2] = (§1) Inhibition of cell proliferation of human U87MG cells assessed as cell viability after 72 hrs by sulforhodamine B assay; assay type: functional, cell-based, U-87MG ATCC; details: U-87 MG
C6 [3] = test: Inhibition of cell proliferation of rat C6 cells assessed as cell viability after 72 hrs by sulforhodamine B assay; assay type: functional, cell-based; details: for IC50: C6, 72 h
U-251 [4] = test: Inhibition of cell proliferation of human U251 cells assessed as cell viability after 72 hrs by sulforhodamine B assay; assay type: functional, cell-based; details: for IC50: U-251, 72 h
U-251 [5] = test: Induction of apoptosis in human U251 cells assessed as early apoptotic level at 40 uM after 72 hrs by annexin V-FITC/propidium iodide double staining based flow cytometry (reference value: 1.77%); assay type: functional
U-251 [6] = test: Induction of apoptosis in human U251 cells assessed as nuclear pyknosis at 15 uM after 72 hrs by DAPI staining based fluorescence microscopy; assay type: functional, cell-based
U-251 [7] = test: Induction of apoptosis in human U251 cells assessed as necrotic cell level at 40 uM after 72 hrs by annexin V-FITC/propidium iodide double staining based flow cytometry (reference value: 2.24%); assay type: functional
U-251 [8] = test: Induction of apoptosis in human U251 cells assessed as late apoptotic level at 40 uM after 72 hrs by annexin V-FITC/propidium iodide double staining based flow cytometry (reference value: 4.95%); assay type: functional
C6 [9] = test: Induction of necrosis in rat C6 cells at 10 uM after 72 hrs by propidium iodide staining based fluorescence microscopy; assay type: functional, cell-based
U-251 [10] = test: Induction of necrosis in human U251 cells at 15 uM after 72 hrs propidium iodide staining based fluorescence microscopy; assay type: functional, cell-based
U-251 [11] = test: Inhibition of cell proliferation of human U251 cells assessed as cell viability at 100 uM after 72 hrs by sulforhodamine B assay; assay type: functional; details: U-251, 72 h, read-out: Activity
C6 [12] = test: Induction of apoptosis in rat C6 cells assessed as nuclear pyknosis at 10 uM after 72 hrs by DAPI staining based fluorescence microscopy; assay type: functional, cell-based
U-87MG ATCC = test: as §1; assay type: functional, cell-based
C6 [13] = test: Inhibition of cell proliferation of rat C6 cells assessed as cell viability at 100 uM after 72 hrs by sulforhodamine B assay; assay type: functional; details: C6, 72 h, read-out: Activity
U-251 [14] = test: Induction of apoptosis in human U251 cells assessed as nuclear pyknosis at 20 uM after 72 hrs by DAPI staining based fluorescence microscopy; assay type: functional, cell-based
C6 [15] = test: Induction of necrosis in rat C6 cells at 2.5 uM after 72 hrs by propidium iodide staining based fluorescence microscopy; assay type: functional, cell-based
C6 [16] = test: Induction of apoptosis in rat C6 cells assessed as nuclear pyknosis at 2.5 uM after 72 hrs by DAPI staining based fluorescence microscopy; assay type: functional, cell-based
U-251 [17] = test: Induction of necrosis in human U251 cells at 20 uM after 72 hrs propidium iodide staining based fluorescence microscopy; assay type: functional, cell-based
U-251 [18] = test: Induction of apoptosis in human U251 cells assessed as viable cell level at 10 uM after 72 hrs by annexin V-FITC/propidium iodide double staining based flow cytometry (reference value: 94.49%); assay type: functional
U-251 [19] = test: Induction of apoptosis in human U251 cells assessed as necrotic cell level at 10 uM after 72 hrs by annexin V-FITC/propidium iodide double staining based flow cytometry (reference value: 1.79%); assay type: functional
C6 [20] = test: Induction of apoptosis in rat C6 cells assessed as viable cell level at 6 uM after 72 hrs by annexin V-FITC/propidium iodide double staining based flow cytometry (reference value: 93.43); assay type: functional
C6 [21] = test: Induction of necrosis in rat C6 cells at 6 uM after 72 hrs by propidium iodide staining based fluorescence microscopy; assay type: functional, cell-based
U-251 [22] = test: Induction of apoptosis in human U251 cells assessed as nuclear pyknosis at 10 uM after 72 hrs by DAPI staining based fluorescence microscopy; assay type: functional, cell-based
U-251 [23] = test: Induction of apoptosis in human U251 cells assessed as late apoptotic level at 10 uM after 72 hrs by annexin V-FITC/propidium iodide double staining based flow cytometry (reference value: 3.16%); assay type: functional
U-251 [24] = test: Induction of apoptosis in human U251 cells assessed as early apoptotic level at 10 uM after 72 hrs by annexin V-FITC/propidium iodide double staining based flow cytometry (reference value: 0.56%); assay type: functional
C6 [25] = test: Induction of apoptosis in rat C6 cells assessed as early apoptotic level at 6 uM after 72 hrs by annexin V-FITC/propidium iodide double staining based flow cytometry (reference value: 1.67%); assay type: functional
C6 [26] = test: Induction of apoptosis in rat C6 cells assessed as late apoptotic level at 6 uM after 72 hrs by annexin V-FITC/propidium iodide double staining based flow cytometry (reference value: 3.68%); assay type: functional
C6 [27] = test: Induction of apoptosis in rat C6 cells assessed as necrotic cell level at 6 uM after 72 hrs by annexin V-FITC/propidium iodide double staining based flow cytometry (reference value: 1.22%); assay type: functional
C6 [28] = test: Induction of apoptosis in rat C6 cells assessed as nuclear pyknosis at 6 uM after 72 hrs by DAPI staining based fluorescence microscopy; assay type: functional, cell-based
U-251 [29] = test: Induction of necrosis in human U251 cells at 10 uM after 72 hrs propidium iodide staining based fluorescence microscopy; assay type: functional, cell-based

Compound | IC50 (U-251 [4]) [µM] | IC50 [2] [µM] | IC50 (C6 [3]) [µM] | viability at 100 µM (U-251 [11]) [%] | inhibition (U-87MG ATCC) | inhibition (C6 [3]) | inhibition (U-251 [4]) | viability at 100 µM (C6 [13]) [%] | further results
C[C@@H]1O[C@@H](O[C@H]2[C@H](OC(=O)[C@]34CCC(C)(C)C[C@H]3C3=CC[C@@H]5[C@@]6(C)CC[C@H](O[C@@H]7O[C@H](CO[C@@H]8OC[C@H](O)[C@H](O)[C@H]8O[C@@H]8OC[C@@H](O)[C@H](O)[C@H]8O)[C@@H](O)[C@H](O)[C@H]7O)C(C)(C)[C@@H]6CC[C@@]5(C)[C@]3(C)C[C@H]4O)O[C@H](CO)[C@@H](O)[C@@H]2O)[C@H](O[C@@H]2OC[C@@H](O)[C@H](O)[C@H]2O)[C@H](O)[C@H]1O[C@@H]1OC[C@@H](O)[C@H](O[C@@H]2OC[C@@H](O)[C@H](O)[C@H]2O)[C@H]1O | – | – | – | 93.6 | inactive | inactive | inactive | 81.6 | –
C[C@@H]1O[C@@H](O[C@H]2[C@H](OC(=O)[C@]34CCC(C)(C)C[C@H]3C3=CC[C@@H]5[C@@]6(C)CC[C@H](O[C@@H]7O[C@H](CO[C@@H]8OC[C@H](O)[C@H](O)[C@H]8O[C@@H]8OC[C@@H](O)[C@H](O)[C@H]8O)[C@@H](O)[C@H](O)[C@H]7O)C(C)(C)[C@@H]6CC[C@@]5(C)[C@]3(C)C[C@H]4O)O[C@H](CO)[C@@H](O)[C@@H]2O)[C@H](O[C@@H]2O[C@H](CO)[C@H](O)[C@H](O)[C@H]2O)[C@H](O)[C@H]1O[C@@H]1OC[C@@H](O)[C@H](O[C@@H]2OC[C@@H](O)[C@H](O)[C@H]2O)[C@H]1O | – | – | – | 130 | inactive | inactive | inactive | 61.5 | –
CC1(C)CC[C@]2(C(=O)O)CC[C@]3(C)C(=CC[C@@H]4[C@@]5(C)CC[C@H](O[C@@H]6O[C@H](CO[C@@H]7OC[C@H](O)[C@H](O)[C@H]7O[C@@H]7OC[C@@H](O)[C@H](O)[C@H]7O)[C@@H](O)[C@H](O)[C@H]6O)C(C)(C)[C@@H]5CC[C@]43C)[C@@H]2C1 [PITHEDULOSIDE C] | – | – | – | 104 | inactive | inactive | inactive | 63 | –
C[C@@H]1O[C@@H](OC[C@H]2O[C@@H](OC(=O)[C@]34CCC(C)(C)C[C@H]3C3=CC[C@@H]5[C@@]6(C)CC[C@H](O[C@@H]7O[C@H](CO[C@@H]8OC[C@H](O)[C@H](O)[C@H]8O)[C@@H](O)[C@H](O)[C@H]7O)C(C)(C)[C@@H]6CC[C@@]5(C)[C@]3(C)C[C@H]4O)[C@H](O[C@@H]3O[C@@H](C)[C@H](O[C@@H]4OC[C@@H](O)[C@H](O[C@@H]5OC[C@@H](O)[C@H](O)[C@H]5O)[C@H]4O)[C@@H](O)[C@H]3O)[C@@H](O)[C@@H]2O)[C@H](O)[C@H](O)[C@H]1O | – | – | – | 72.3 | inactive | inactive | inactive | 63.9 | –

The next lines start with results.

IC50 (U-251 [4]) [µM] | Compound | IC50 [2] [µM] | IC50 (C6 [3]) [µM] | viability at 100 µM (U-251 [11]) [%] | inhibition (U-87MG ATCC) | inhibition (C6 [3]) | inhibition (U-251 [4]) | viability at 100 µM (C6 [13]) [%] | further results
15.6 | C/C=C(/C)C(=O)O[C@H]1[C@H](O)[C@]2(COC(C)=O)[C@H](O)C[C@]3(C)C(=CC[C@@H]4[C@@]5(C)CC[C@H](O[C@@H]6O[C@H](C(=O)OC)[C@@H](O[C@@H]7O[C@H](CO)[C@@H](O)[C@H](O)[C@H]7O)[C@H](O)[C@H]6O[C@@H]6O[C@H](CO)[C@@H](O)[C@H](O)[C@H]6O)[C@](C)(CO)[C@@H]5CC[C@]43C)[C@@H]2CC1(C)C | 8.32 | 11 | 22.2 | – | – | – | – | Activity (U-251 [1]): 62.1%; Activity (U-251 [5]): 7.06%; Activity (U-251 [6]): Active; Activity (U-251 [7]): 4.3%; Activity (U-251 [8]): 26.54%; Activity (C6 [9]): Active; Activity (U-251 [10]): Active; Activity (C6 [12]): Active
> 200 | Cn1nnc2c(C(N)=O)ncn2c1=O [TEMOZOLOMIDE] | > 200 | 60.5 | – | – | – | – | – | –
29.5 | COc1cc(CCC(=O)OCCc2ccc(O)c(O)c2)ccc1O | – | 5.37 | 48.4 | – | – | – | – | Activity (U-251 [14]): Active; Activity (C6 [15]): Active; Activity (C6 [16]): Active; Activity (U-251 [17]): Active
16.9 | C=C[C@@](C)(O)CC/C=C(\C)C(=O)OC[C@H]1O[C@@H](OC(=O)[C@]23CCC(C)(C)C[C@H]2C2=CC[C@@H]4[C@@]5(C)CC[C@H](O[C@@H]6O[C@H](CO[C@@H]7OC[C@H](O)[C@H](O)[C@H]7O[C@@H]7OC[C@@H](O)[C@H](O)[C@H]7O)[C@@H](O)[C@H](O)[C@H]6O)C(C)(C)[C@@H]5CC[C@@]4(C)[C@]2(C)CC3)[C@H](O[C@@H]2O[C@@H](C)[C@H](O[C@@H]3OC[C@@H](O)[C@H](O[C@@H]4OC[C@@H](O)[C@H](O)[C@H]4O)[C@H]3O)[C@@H](O)[C@H]2O)[C@@H](O)[C@@H]1O | 14.7 | 7.3 | 14.2 | – | – | – | – | Activity (U-251 [18]): 64.13%; Activity (U-251 [19]): 13.62%; Activity (C6 [20]): 40.15%; Activity (C6 [21]): Active; Activity (U-251 [22]): Active; Activity (U-251 [23]): 18.13%; Activity (U-251 [24]): 4.12%; Activity (C6 [25]): 16.73%; Activity (C6 [26]): 21.37%; Activity (C6 [27]): 21.75%; Activity (C6 [28]): Active; Activity (U-251 [29]): Active
